biological target: T1, hCRTH2 (Homo sapiens, UniProt Q9Y5Y4); experiment: Radioligand binding assay ([3H]PGD2 competition, HEK-hCRTH2 membranes); details: [3H]PGD2 binding, rated A-E (Table A)
T1 construct: expressed in transfected cells; host or cells: HEK (human embryonic kidney) cells expressing hCRTH2; membrane preparation
T1 sequence (Q9Y5Y4 1-395): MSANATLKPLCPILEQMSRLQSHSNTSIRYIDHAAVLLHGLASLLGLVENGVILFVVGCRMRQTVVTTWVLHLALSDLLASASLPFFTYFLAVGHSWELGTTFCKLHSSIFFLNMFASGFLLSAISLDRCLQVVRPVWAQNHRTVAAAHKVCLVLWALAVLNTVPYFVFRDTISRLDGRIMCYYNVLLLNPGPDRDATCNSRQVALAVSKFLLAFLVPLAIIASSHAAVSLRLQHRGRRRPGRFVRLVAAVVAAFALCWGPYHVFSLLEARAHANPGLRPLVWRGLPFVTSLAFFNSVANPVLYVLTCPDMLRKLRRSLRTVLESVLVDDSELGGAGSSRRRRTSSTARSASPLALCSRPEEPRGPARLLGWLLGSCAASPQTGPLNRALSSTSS
Summary of the method: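 HEK-hCRTH2 membranes, 8-20 μg; [3H]PGD2 3.0 nM; 50 mM Tris-HCl pH 7.4/1 mM EDTA/2 mM MnCl2; DMSO 1%; 60 min RT; NSB 10 μM PGD2; filtration, scintillation counting.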

Row | Structure (SMILES) | Ki
1 | CC(CCc1nc2cc(C(=O)N3CC[C@@H](c4ccccc4)C3)ccc2nc1-c1ccc(C(F)(F)F)cc1)CC(=O)O (stereo partly drawn) [17V, beta-methyl-7-[(3(S)-phenyl-1-pyrrolidinyl)carbonyl]-3-[4-(trifluoromethyl)phenyl]-2-quinoxalinepentanoic acid] | 0.1 to 2 nM
2 | CC(CCc1nc2cc(C(=O)N3CC(c4ccccc4)C3)ccc2nc1-c1ccc(C(F)(F)F)cc1)CC(=O)O (stereo not drawn) [17W, beta-methyl-7-[(3-phenyl-1-azetidinyl)carbonyl]-3-[4-(trifluoromethyl)phenyl]-2-quinoxalinepentanoic acid] | 0.1 to 2 nM
3 | CC(CCc1nc2cc(C(=O)NCc3ccc(Cl)cc3)ccc2nc1-c1ccc(C(F)(F)F)cc1)CC(=O)O (stereo not drawn) [17X, 7-[[[(4-chlorophenyl)methyl]amino]carbonyl]-beta-methyl-3-[4-(trifluoromethyl)phenyl]-2-quinoxalinepentanoic acid] | 2.1 to 20 nM
4 | CC(CCc1nc2cc(C(=O)NCc3ccc(OC(F)(F)F)cc3)ccc2nc1-c1ccc(C(F)(F)F)cc1)CC(=O)O (stereo not drawn) [17Y, beta-methyl-7-[[[[4-(trifluoromethoxy)phenyl]methyl]amino]carbonyl]-3-[4-(trifluoromethyl)phenyl]-2-quinoxalinepentanoic acid] | 2.1 to 20 nM
5 | CC(CCc1nc2cc(C(=O)NCc3ccc(C#N)cc3)ccc2nc1-c1ccc(C(F)(F)F)cc1)CC(=O)O (stereo not drawn) [17Z, 7-[[[(4-cyanophenyl)methyl]amino]carbonyl]-beta-methyl-3-[4-(trifluoromethyl)phenyl]-2-quinoxalinepentanoic acid] | 2.1 to 20 nM
6 | CC(CCc1nc2cc(C(=O)N3CCC[C@@H](c4ccccc4)C3)ccc2nc1-c1ccc(Cl)cc1)CC(=O)O (stereo partly drawn) [17i, 3-(4-chlorophenyl)-beta-methyl-7-[(3(S)-phenyl-1-piperidinyl)carbonyl]-2-quinoxalinepentanoic acid] | 2.1 to 20 nM
7 | COc1ccc([C@@H](C)NC(=O)c2ccc3nc(-c4ccc(Cl)cc4)c(CCC(C)CC(=O)O)nc3c2)cc1 (stereo partly drawn) [17o, 3-(4-chlorophenyl)-7-[[[1(R)-(4-methoxyphenyl)ethyl]amino]carbonyl]-beta-methyl-2-quinoxaline pentanoic acid] | 0.1 to 2 nM
8 | CC(CCCc1nc2cc(C(=O)NCc3cccc(Cl)c3)ccc2nc1-c1ccc(C(F)(F)F)cc1)C(=O)O (stereo not drawn) [18D, 7-[[[(3-chlorophenyl)methyl]amino]carbonyl]-alpha-nethyl-3-[4-(trifluoromethyl)phenyl]-2-quinoxalinepentanoic acid] | 2.1 to 20 nM
9 | CC(CCCc1nc2cc(C(=O)N3CC[C@@H](c4ccccc4)C3)ccc2nc1-c1ccc(C(F)(F)F)cc1)C(=O)O (stereo partly drawn) [18E, alpha-methyl-7-[(3(S)-phenyl-1-pyrrolidinyl)carbonyl]-3-[4-(trifluoromethyl)phenyl]-2-quinoxalinepentanoic acid] | 0.1 to 2 nM
10 | CC(CCCc1nc2cc(C(=O)N3CC[C@H](c4ccccc4)C3)ccc2nc1-c1ccc(C(F)(F)F)cc1)C(=O)O (stereo partly drawn) [18F, alpha-methyl-7-[(3(R)-phenyl-1-pyrrolidinyl)carbonyl]-3-[4-(trifluoromethyl)phenyl]-2-quinoxalinepentanoic acid] | 2.1 to 20 nM
11 | CC(CCCc1nc2cc(C(=O)NC3Cc4ccccc4C3)ccc2nc1-c1ccc(C(F)(F)F)cc1)C(=O)O (stereo not drawn) [18G, 7-[[(2,3-dihydro-1H-inden-2-yl)amino]carbonyl]-alpha-methyl-3-[4-(trifluoromethyl)phenyl]-2-quinoxalinepentanoic acid] | 0.1 to 2 nM
12 | CC(CCCc1nc2cc(C(=O)N[C@@H](c3ccccc3)C(F)(F)F)ccc2nc1-c1ccc(C(F)(F)F)cc1)C(=O)O (stereo partly drawn) [18H, alpha-methyl-3-[4-(trifluoromethyl)phenyl]-7-[[(2,2,2-trifluoro-1(S)-phenylethyl)amino]carbonyl]-2-quinoxalinepentanoic acid] | 2.1 to 20 nM

Continued, values first:

Row | Ki | Structure (SMILES)
13 | 2.1 to 20 nM | N#Cc1ccc(CNC(=O)c2ccc3nc(-c4ccc(Cl)cc4)c(CCc4cccc(CC(=O)O)c4)nc3c2)cc1 [19F, 3-[2-[3-(4-chlorophenyl)-7-[[[(4-cyanophenyl)methyl]amino]carbonyl]-2-quinoxalinyl]ethyl] benzeneacetic acid]
14 | 2.1 to 20 nM | C[C@@H](NC(=O)c1ccc2nc(-c3ccc(Cl)cc3)c(CCc3cccc(CC(=O)O)c3)nc2c1)c1ccc(F)cc1 [19G, 3-[2-[3-(4-chlorophenyl)-7-[[[1(R)-(4-fluorophenyl)ethyl]amino]carbonyl]-2-quinaxalinyl]ethyl] benzeneacetic acid]
15 | 2.1 to 20 nM | C[C@H](NC(=O)c1ccc2nc(-c3ccc(Cl)cc3)c(CCc3cccc(CC(=O)O)c3)nc2c1)c1ccc(F)cc1 [19H, 3-[2-[3-(4-chlorophenyl)-7-[[[1(S)-(4-fluorophenyl)ethyl]amino]carbonyl]-2-quinoxalinyl]ethyl] benzeneacetic acid]
16 | 20.1 to 200 nM | O=C(O)Cc1cccc(CCc2nc3cc(C(=O)N[C@@H](c4ccccc4)C(F)(F)F)ccc3nc2-c2ccc(Cl)cc2)c1 [19J, 3-[2-[3-(4-chlorophenyl)-7-[[(2,2,2-trifluoro-1(S)-phenylethyl)amino]carbonyl]-2-quinoxalinyl]ethyl]benzeneacetic acid]
17 | 2.1 to 20 nM | O=C(O)Cc1cccc(CCc2nc3cc(C(=O)N4CC(c5ccccc5)C4)ccc3nc2-c2ccc(Cl)cc2)c1 [19K, 3-[2-[3-(4-chlorophenyl)-7-[(3-phenyl-1-azetidinyl)carbonyl]-2-quinoxalinyl]ethyl] benzeneacetic acid]
18 | 2.1 to 20 nM | O=C(O)Cc1cccc(CCc2nc3cc(C(=O)NCc4cccc(Cl)c4)ccc3nc2-c2ccc(Cl)cc2)c1 [19i, 3-[2-[3-(4-chlorophenyl)-7-[[[(3-chlorophenyl)methyl]amino]carbonyl]-2-quinoxalinyl]ethyl] benzeneacetic acid]
19 | 2.1 to 20 nM | C[C@@H](c1ccccc1)N(C)C(=O)c1ccc2nc(-c3ccc(F)cc3)c(CCCCC(=O)O)nc2c1 [21C, -(4-fluorophenyl)-7-[[methyl(1(S)-phenylethyl)amino]carbonyl]-2-quinoxalinepentanoic acid]
20 | 20.1 to 200 nM | O=C(NCc1cccc(Cl)c1)c1ccc2nc(-c3ccccc3)c(CCCCc3nnn[nH]3)nc2c1 [22D, N-[(3-chlorophenyl)methyl]-2-phenyl-3-[4-(1H-tetrazol-5-yl)butyl]-6-quinoxalinecarboxamide]
21 | 2.1 to 20 nM | O=C(O)CCCCc1nc2cc(C(=O)N3CC[C@@H](c4ccccc4)C3)c(F)cc2nc1-c1ccc(F)cc1 [24H, 6-fluoro-3-(4-fluorophenyl)-7-[(3(S)-phenyl-1-pyrrolidinyl)carbonyl]-2-quinoxalinepentanoic acid]
22 | 2.1 to 20 nM | O=C(O)CCCCc1nc2cc(C(=O)N3CC[C@@H](c4ccccc4)C3)c(F)cc2nc1-c1ccccc1 [24i, 6-fluoro-3-phenyl-7-[(3(S)-phenyl-1-pyrrolidinyl)carbonyl]-2-quinoxalinepentanoic acid]
23 | 0.1 to 2 nM | O=C(O)CCCCc1nc2cc(C(=O)N3CCC(c4ccccc4)CC3)ccc2nc1-c1ccc(C(F)(F)F)cc1Cl [26AA, 3-[2-chloro-4-(trifluoromethyl)phenyl]-7-[(4-phenyl-1-piperidinyl)carbonyl]-2-quinoxalinepentanoic acid]
24 | 0.1 to 2 nM | O=C(O)CCCCc1nc2cc(C(=O)N3CCC(c4ccccc4)CC3)ccc2nc1-c1ccc(Br)cc1 [26AB, 3-(4-bromophenyl)-7-[(4-phenyl-1-piperidinyl)carbonyl]-2-quinoxalinepentanoic acid]
25 | 2.1 to 20 nM | O=C(O)CCCCc1nc2cc(C(=O)N3CCC(c4ccccc4)C3)ccc2nc1-c1cccc(F)c1 (centres unmarked) [26E, 3-(3-fluorophenyl)-7-[(3-phenyl-1-pyrrolidinyl)carbonyl]-2-quinoxalinepentanoic acid]
26 | 2.1 to 20 nM | O=C(O)CCCCc1nc2cc(C(=O)N3CCC(c4ccccc4)C3)ccc2nc1-c1cccc(Cl)c1 (centres unmarked) [26F, 3-(3-chlorophenyl)-7-[(3-phenyl-1-pyrrolidinyl)carbonyl]-2-quinoxalinepentanoic acid]
27 | 2.1 to 20 nM | O=C(O)CCCCc1nc2cc(C(=O)N3CCC(c4ccccc4)C3)ccc2nc1-c1cc(Cl)cc(Cl)c1 (centres unmarked) [26G, 3-(3,5-dichlorophenyl)-7-[(3-phenyl-1-pyrrolidinyl)carbonyl]-2-quinoxalinepentanoic acid]
28 | 2.1 to 20 nM | O=C(O)CCCCc1nc2cc(C(=O)N3CCC(c4ccccc4)C3)ccc2nc1-c1ccc(F)cc1F (centres unmarked) [26H, 3-(2,4-difluorophenyl)-7-[(3-phenyl-1-pyrrolidinyl)carbonyl]-2-quinoxalinepentanoic acid]
29 | 0.1 to 2 nM | O=C(O)CCCCc1nc2cc(C(=O)N3CCC(c4ccccc4)CC3)ccc2nc1-c1cccc(Cl)c1 [26J, 3-(3-chlorophenyl)-7-[(4-phenyl-1-piperidinyl)carbonyl]-2-quinoxalinepentanoic acid]
30 | 2.1 to 20 nM | O=C(O)CCCCc1nc2cc(C(=O)N3CCC(c4ccccc4)CC3)ccc2nc1-c1ccc(C(F)(F)F)nc1 [26K, 7-[(4-phenyl-1-piperidinyl)carbonyl]-3-[6-(trifluoromethyl)-3-pyridinyl]-2-quinoxalinepentanoic acid]
31 | 2.1 to 20 nM | O=C(O)CCCCc1nc2cc(C(=O)N3CCC(c4ccccc4)CC3)ccc2nc1-c1ccccc1Cl [26L, 3-(2-chlorophenyl)-7-[(4-phenyl-1-piperidinyl)carbonyl]-2-quinoxalinepentanoic acid]
32 | 2.1 to 20 nM | O=C(O)CCCCc1nc2cc(C(=O)N3CCC(c4ccccc4)CC3)ccc2nc1-c1cccnc1 [26M, 7-[(4-phenyl-1-piperidinyl)carbonyl]-3-(3-pyridinyl)-2-quinoxalinepentanoic acid]

Source: patent US9469615B2, “Quinoxalines and AZA-quinoxalines as CRTH2 receptor modulators” (Merck Sharp & Dohme Corp., priority 2010, dated 2016)
